Measured values: PubChem BioAssay AID686957 (The Scripps Research Institute Molecular Screening Center, 2013)
The source made the active and inactive calls. No rule for the calls is given here.

target: T-cell receptor (TCR)-CD3 interaction, human (TCR alpha chain TRAV4); test: IC50 for blocking TCR-CD3 binding – biochemical, fluorescence, TAMRA-labeled TCR probe, dose response (AID 686957)

Compound	IC50
COc1ccc(CC(=O)N/N=C/c2cc([N+](=O)[O-])cc(Br)c2O)cc1	> 94.1 µM (inactive)
CN(C)S(=O)(=O)c1cccc(NC(=O)COC(=O)c2cc(-c3cccc(Br)c3)nc3ccccc23)c1	inactive
O=C(Cc1nnc(NC(=O)c2ccccc2)s1)N/N=C\c1ccc(O)c(O)c1	> 94.1 µM (inactive)
Cc1cc2oc3ccc(NCCCn4ccnc4)cc3c(=O)c2cc1C	> 94.1 µM (inactive)
CC(=O)NC(CC(=O)NNC(=O)c1cc2ccccc2cc1O)c1ccccc1 (stereo not drawn)	> 94.1 µM (inactive)
Cn1c(O)c(/C=N/NC(=O)c2cc3ccccc3cc2O)c2ccccc21	> 94.1 µM (inactive)
O=c1c2ccccc2nc(COc2ccccc2)n1/N=C/c1cc([N+](=O)[O-])ccc1O	> 94.1 µM (inactive)
COc1ccc(/C=C2\SC(=O)N(CC(=O)NNC(=O)c3ccccc3O)C2=O)cc1	> 94.1 µM (inactive)
Cc1nc(S/C(=C/c2ccc(OCc3ccc(C(=O)O)cc3)cc2)C(=O)O)n[nH]1	> 94.1 µM (inactive)
COc1cc([N+](=O)[O-])cc(/C=N/NC(=O)c2cc(C)nc3ccccc23)c1O	> 94.1 µM (inactive)
O=c1c(O)cccc2cc(O)c(O)c(O)c12	4.39 µM
Cc1ccccc1C(=O)Nc1cccc(C(=O)N/N=C/c2cc(Cl)cc([N+](=O)[O-])c2O)c1	> 94.1 µM (inactive)
COCCNC(=O)Nc1ccc2nc(-c3ccco3)c(-c3ccco3)nc2c1	> 94.1 µM (inactive)
COc1ccccc1C(=O)NNC(=O)c1ccc(NC(=O)CC(C)C)cc1	> 94.1 µM (inactive)
Oc1c(Br)cc(Br)cc1/C=N/NC(=S)N[C@H]1CC2C=CC1C2 (stereo partly drawn)	> 94.1 µM (inactive)
O=C(N/N=C/c1cc([N+](=O)[O-])cc([N+](=O)[O-])c1O)/C(=C\c1cccs1)NC(=O)c1ccccc1	> 94.1 µM (inactive)
Cc1cc(C)c2c(N)c(C(=O)NN)sc2n1	> 94.1 µM (inactive)
CNC(=S)NNC(=O)c1cccn(Cc2cccc(C(F)(F)F)c2)c1=O	> 94.1 µM (inactive)
O=C(CCNC(=O)c1ccc(Br)cc1)NNC(=O)c1ccccc1O	> 94.1 µM (inactive)
COc1ccccc1N(C)S(=O)(=O)c1ccc(C(=O)NNC(=O)c2ccccc2O)cc1	> 94.1 µM (inactive)
COC(=O)Nc1ccc(S(=O)(=O)NNC(=O)c2c(O)c3ccccc3n(C)c2=O)cc1	> 94.1 µM (inactive)
O=c1c2ccccc2c(C=Nc2ccccc2O)c(O)n1-c1nccs1	> 94.1 µM (inactive)
COc1cccc(/C=C2/SC(=S)N(CC(=O)NNC(=O)c3ccccc3O)C2=O)c1	> 94.1 µM (inactive)

Compound	IC50
O=c1cc(-c2ccc(O)cc2)oc2cc(O)c(C3OC(CO)C(O)C(O)C3O)c(O)c12 (stereo not drawn)	> 94.1 µM (inactive)
CC1=NN(C(=O)c2ccccc2)C(O)(c2ccc(Br)cc2)C1 (stereo not drawn)	> 94.2 µM (inactive)
Cc1noc(C)c1COc1ccc(C(=O)NNC(=O)c2ccccc2O)cc1	> 94.1 µM (inactive)
COC(=O)C1CCN(C(=O)c2cc(-c3ccco3)nc3ccccc23)CC1	> 94.1 µM (inactive)
O=C(N/N=C/c1cc([N+](=O)[O-])ccc1O)/C(=C\c1cccs1)NC(=O)c1ccccc1	> 94.1 µM (inactive)
Cc1cccc(C(=O)NCC(=O)NNC(=O)c2ccccc2O)c1	> 94 µM (inactive)
O=[N+]([O-])c1cc(Cl)cc(/C=N/NC(=S)Nc2ccc(S(=O)(=O)N3CCOCC3)cc2)c1O	> 94.1 µM (inactive)
Cc1cc(C)c(-c2cc(NC(=O)COC(=O)c3ccc(NC(=O)CC#N)cc3)n(-c3ccccc3)n2)cc1C	> 94.1 µM (inactive)
O=C(NC(C(=O)N/N=C/c1cc([N+](=O)[O-])ccc1O)c1n[nH]c(=O)c2ccccc12)c1ccccc1 (stereo not drawn)	> 94.1 µM (inactive)
CCn1c(C)nc2cc(C(=O)NNC(=S)NC(=O)c3ccccc3)ccc21	> 94.1 µM (inactive)
CNC(=S)NNC(=O)c1cccn(Cc2ccc(Cl)cc2Cl)c1=O	> 94.1 µM (inactive)
CCc1n[nH]c(=S)n1/N=C/c1cc(OC)cc([N+](=O)[O-])c1O	inactive
Cc1ccccc1NC(=O)NNC(=O)c1ccc2ccccc2c1O	> 94.2 µM (inactive)
Oc1ccc(/C=N/Nc2ncnc3c2ncn3Cc2ccccc2)cc1O	> 94.1 µM (inactive)
Cc1ccc(O)c(/C=N/NC(=O)COc2ccc3c(C)cc(=O)oc3c2)c1	> 94.1 µM (inactive)
CNC(=S)NNC(=O)c1oc2nc(-c3ccccc3)cc(-c3ccco3)c2c1N	> 94.1 µM (inactive)
O=C(CSc1nc2ccccc2c(=O)n1-c1ccc(F)c(Cl)c1)Nc1cccc(S(=O)(=O)N2CCOCC2)c1	> 10.5 µM (inactive)
Cc1ccc(NC(=O)NNC(=O)c2cc3ccccc3cc2O)cc1	> 94.1 µM (inactive)
O=C(CNC(=O)c1ccccc1Br)N/N=C\c1cc([N+](=O)[O-])cc(Br)c1O	> 94.1 µM (inactive)
Cc1cc([N+](=O)[O-])cc(/C=N/n2c(C)nc3ccccc3c2=O)c1O	> 94 µM (inactive)
COCCn1c(=NC(=O)c2cc(-c3cccs3)nc3ccccc23)sc2cc(S(N)(=O)=O)ccc21	> 94.1 µM (inactive)
CC(C)(C)c1ccc(C(=O)NCC(=O)NNC(=O)c2ccccc2O)cc1	> 94.1 µM (inactive)
O=[N+]([O-])c1cc(Br)c(O)c(/C=N/Nc2nnnn2-c2cccc3ccccc23)c1	> 94.1 µM (inactive)

Compound	IC50
O=C1NC(=S)S/C1=C\C=C\c1ccc([N+](=O)[O-])o1	> 94.1 µM (inactive)
CC(=O)NNC(=S)NC(=O)c1ccc(C)cc1	> 94 µM (inactive)
O=C(N/N=C/c1ccoc1)c1cc(O)cc(O)c1	> 94 µM (inactive)
Cc1nc(S/C(=C/c2ccc(-c3ccc(C(=O)O)cc3)o2)C(=O)O)n[nH]1	> 94.2 µM (inactive)
Cc1ccc(C(=O)NNC(=O)c2cc3ccccc3cc2O)cc1	> 94.1 µM (inactive)
Cc1nc2ccccc2c(=O)n1/N=C/c1cc(Br)cc(Br)c1O	> 94.1 µM (inactive)
COc1cc(/C=N/NC(=O)COc2ccc(Cl)cc2)ccc1OS(=O)(=O)c1ccc(C)cc1	inactive
O=C(NNC(=S)NC1CCCCC1)c1ccccc1O	> 94.1 µM (inactive)
O=C1NC(=S)NC1=Cc1ccco1	> 94.1 µM (inactive)
Cc1cc(C)c(C)c(S(=O)(=O)N2CCC(C(=O)NNC(=O)c3ccccc3O)CC2)c1C	> 94.1 µM (inactive)
O=C(NNC(=O)c1ccccc1F)c1cccc(-n2cccc2)c1	> 94 µM (inactive)
Cn1c(SCC(=O)NNC(=O)c2ccccc2O)nnc1-c1ccccc1	> 94.2 µM (inactive)
CCc1ccc(NC(=O)NNC(=O)c2ccc3ccccc3c2O)cc1	> 94.1 µM (inactive)
Cc1[nH]n(-c2ccccc2)c(=O)c1N=Nc1ccccc1O	> 94.1 µM (inactive)
Nc1nnc(CC(=O)N/N=C\c2cc([N+](=O)[O-])ccc2O)s1	> 94.1 µM (inactive)
Cc1cccc(-n2c(O)c(/C=N/NC(=O)c3ccccc3Cl)c3ccccc3c2=O)n1	> 94.1 µM (inactive)
c1coc(-c2ccc3nncn3c2)c1	inactive
Oc1ccc(C[C@H]2NCCc3cc(O)c(O)cc32)cc1O	> 94.1 µM (inactive)
O=C(NNC(=O)c1ccccc1O)c1ccc(-c2ccc([N+](=O)[O-])cc2)o1	> 94.1 µM (inactive)
O=C(Cc1ccccc1)N/N=C/c1cc(Br)cc(Br)c1O	> 94.1 µM (inactive)
O=C(N/N=C/c1sc(=O)[nH]c1-[n+]1ccc2ccccc2c1)c1ccccc1[O-]	> 94.1 µM (inactive)
O=C(NNC(=O)c1cc(Cl)ccc1O)c1cccc(S(=O)(=O)N2CCOCC2)c1	> 94.1 µM (inactive)
